Test results taken from patent US12655116B2, “Substituted isophthalic acid diamides” (Bayer Aktiengesellschaft, priority 2020, dated 2026).

Columns and labels:
ALOMY [1] = test: Pre-emergence herbicidal action against ALOMY; assay type: in vivo, Alopecurus myosuroides; conditions: pre-emergence; for pest or weed control at 80 g/ha / pest or weed control at 20 g/ha: Alopecurus myosuroides, 504 h; for pest or weed control at 20 g/ha: scored visually after 3 weeks, 100% = plants have died, 0% = like control plants
Procedure, shortened: (§1)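 Sandy loam pots, seeds covered with soil, then surface-treated with WP or EC formulations at 600–800 l/ha water plus 0.2% wetting agent. Greenhouse, 3 weeks. Percent damage vs untreated controls.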

AMARE [2] = test: Pre-emergence herbicidal action against AMARE; assay type: in vivo, Amaranthus retroflexus; conditions: for pest or weed control at 20 g/ha / pest or weed control at 80 g/ha: Amaranthus retroflexus, 504 h
Procedure, shortened: as §1

LOLRI = test: Pre-emergence herbicidal action against LOLRI; assay type: in vivo, Lolium rigidum; conditions: 80 g/ha; for pest or weed control at 80 g/ha: Lolium rigidum, 504 h
Procedure, shortened: as §1

DIGSA [3] = test: Post-emergence herbicidal action against DIGSA; assay type: in vivo, Digitaria sanguinalis
Procedure, shortened: (§2)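 Herbicidal action is a visual percentage rating (0% = as untreated control, 100% = plants dead) made roughly 3 weeks after treatment. Plants were grown in sandy loam in the greenhouse and treated at the one-leaf stage, 2 to 3 weeks post-sowing. Treatment was a foliar spray of wettable-powder or emulsion-concentrate formulations at 600 to 800 l/ha water plus 0.2% wetting agent.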

VERPE [4] = test: Post-emergence herbicidal action against VERPE; assay type: in vivo, Veronica persica; conditions: 20 g/ha; for pest or weed control at 20 g/ha: Veronica persica, 504 h
Procedure, shortened: as §2

ABUTH [5] = test: Pre-emergence herbicidal action against ABUTH; assay type: in vivo, Abutilon theophrasti; conditions: for pest or weed control at 80 g/ha / pest or weed control at 20 g/ha: Abutilon theophrasti, 504 h; for pest or weed control at 20 g/ha: read-out: Pre-emergence action against ABUTH (herbicidal activity in percent)
Procedure, shortened: as §1

AMARE [6] = test: Post-emergence herbicidal action against AMARE; assay type: in vivo, Amaranthus retroflexus; conditions: 20 g/ha, visual assessment about 3 weeks after treatment, 100% = plants have died, 0% = like control plants; for pest or weed control at 20 g/ha: Amaranthus retroflexus, 504 h
Procedure, shortened: as §2

DIGSA [7] = test: Pre-emergence herbicidal action against DIGSA; assay type: in vivo, Digitaria sanguinalis; conditions: for pest or weed control at 20 g/ha / pest or weed control at 80 g/ha: Digitaria sanguinalis, 504 h
Procedure, shortened: as §1

AVEFA = test: Pre-emergence herbicidal action against AVEFA; assay type: in vivo, Avena fatua; conditions: for pest or weed control at 80 g/ha: Avena fatua, 504 h
Procedure, shortened: as §1

SETVI [8] = test: Pre-emergence herbicidal action against SETVI; assay type: in vivo, Setaria viridis; conditions: for pest or weed control at 20 g/ha / pest or weed control at 80 g/ha: Setaria viridis, 504 h
Procedure, shortened: as §1

VIOTR [9] = test: Post-emergence herbicidal action against VIOTR; assay type: in vivo, Viola tricolor
Procedure, shortened: as §2

ECHCG [10] = test: Post-emergence herbicidal action against ECHCG; assay type: in vivo, Echinochloa crus-galli
Procedure, shortened: as §2

MATIN [11] = test: Post-emergence herbicidal action against MATIN; assay type: in vivo, Matricaria inodora
Procedure, shortened: as §2

ECHCG [12] = test: Pre-emergence herbicidal action against ECHCG; assay type: in vivo, Echinochloa crus-galli; conditions: for pest or weed control at 80 g/ha: Echinochloa crus-galli, 504 h
Procedure, shortened: as §1

MATIN [13] = test: Pre-emergence herbicidal action against MATIN; assay type: in vivo, Matricaria inodora
Procedure, shortened: as §1

ALOMY [14] = test: Post-emergence herbicidal action against ALOMY; assay type: in vivo, Alopecurus myosuroides; conditions: visual assessment about 3 weeks after treatment vs untreated controls
Procedure, shortened: as §2

VIOTR [15] = test: Pre-emergence herbicidal action against VIOTR; assay type: in vivo, Viola tricolor; conditions: for pest or weed control at 20 g/ha / pest or weed control at 80 g/ha: Viola tricolor, 504 h
Procedure, shortened: as §1

PHBPU [16] = test: Post-emergence herbicidal action against PHBPU; assay type: in vivo, Pharbitis purpurea
Procedure, shortened: as §2

PHBPU [17] = test: Pre-emergence herbicidal action against PHBPU; assay type: in vivo, Pharbitis purpurea; conditions: for pest or weed control at 80 g/ha: Ipomoea purpurea, 504 h
Procedure, shortened: as §1

ABUTH [18] = test: Post-emergence herbicidal action against ABUTH; assay type: in vivo, Abutilon theophrasti; conditions: Abutilon theophrasti, 504 h, visual assessment about 3 weeks after treatment vs untreated controls; for pest or weed control at 5 g/ha: dosage 5 g/ha; for pest or weed control at 20 g/ha: dosage 20 g/ha
Procedure, shortened: as §2

VERPE [19] = test: Pre-emergence herbicidal action against VERPE; assay type: in vivo, Veronica persica; conditions: Veronica persica, 504 h, dosage 80 g/ha
Procedure, shortened: as §1

SETVI [20] = test: Post-emergence herbicidal action against SETVI; assay type: in vivo, Setaria viridis; conditions: Setaria viridis, 504 h; for pest or weed control at 5 g/ha: dosage 5 g/ha; for pest or weed control at 20 g/ha: dosage 20 g/ha
Procedure, shortened: as §2

[21] = 80 g/ha, scored visually after 3 weeks vs untreated controls (100% = plants have died, 0% = like control plants)
[22] = 20 g/ha, scored visually after 3 weeks vs untreated controls, 100% = plants have died, 0% = like control plants
[23] = dosage 20 g/ha, scored visually after 3 weeks vs untreated controls, 100% = plants have died, 0% = like control plants
[24] = 80 g/ha, scored visually after 3 weeks vs untreated controls, 100% = plants have died, 0% = like control plants
[25] = Tripleurospermum inodorum, 504 h, dosage 20 g/ha
[26] = Tripleurospermum inodorum, 504 h, dosage 80 g/ha
[27] = Alopecurus myosuroides, 504 h, dosage 20 g/ha

## CCn1nnnc1NC(=O)c1ccc(C(F)(F)F)c(C(=O)NCC(F)F)c1Cl [Example 2-134]
ALOMY [1]; [21]
  Pre-emergence action against ALOMY (herbicidal activity): 90%
AMARE [2]; [22]
  Pre-emergence action against AMARE in %: 100%
AMARE [2]; [21]
  Pre-emergence action against AMARE in %: 100%
LOLRI
  Pre-emergence action against LOLRI in %: 80%
DIGSA [3]; 20 g/ha
  Post-emergence action against DIGSA: 80%
VERPE [4]
  Post-emergence action against VERPE in %: 80%
ABUTH [5]; [21]
  Pre-emergence action against ABUTH (herbicidal activity): 100%
ABUTH [5]; [23]
  Pre-emergence action against ABUTH (herbicidal activity in percent): 100%
AMARE [6]
  Post-emergence action at 20 g/ha against AMARE in %: 100%
DIGSA [7]; dosage 20 g/ha
  Pre-emergence action against DIGSA in %: 80%
DIGSA [7]; dosage 80 g/ha
  Pre-emergence action against DIGSA in %: 100%
AVEFA; 20 g/ha, scored visually after 3 weeks, 100% = plants have died, 0% = like control plants
  Pre-emergence action against AVEFA: 80%
AVEFA; 80 g/ha, pre-emergence
  Pre-emergence action against AVEFA in %: 90%
SETVI [8]; dosage 20 g/ha
  Pre-emergence action against SETVI in %: 80%
SETVI [8]; dosage 80 g/ha
  Pre-emergence action against SETVI in %: 100%
VIOTR [9]; 5 g/ha
  Post-emergence action against VIOTR in %: 80%
VIOTR [9]; 20 g/ha
  Post-emergence action against VIOTR in %: 90%
ECHCG [10]; dosage 20 g/ha
  Post-emergence action against ECHCG in %: 90%
MATIN [11]; dosage 20 g/ha
  Post-emergence action against MATIN in %: 80%
ECHCG [12]; 20 g/ha
  Pre-emergence action against ECHCG in %: 80%
ECHCG [12]; 80 g/ha
  Pre-emergence action against ECHCG in %: 100%
MATIN [13]; dosage 20 g/ha
  Pre-emergence action against MATIN in %: 90%
MATIN [13]; dosage 80 g/ha
  Pre-emergence action against MATIN in %: 100%
ALOMY [14]; dosage 20 g/ha
  Post-emergence action against ALOMY in %: 80%
VIOTR [15]; dosage 20 g/ha
  Pre-emergence action against VIOTR in %: 100%
VIOTR [15]; dosage 80 g/ha
  Pre-emergence action against VIOTR in %: 100%
PHBPU [16]; dosage 20 g/ha
  Post-emergence action against PHBPU in %: 90%
PHBPU [17]; dosage 20 g/ha
  Pre-emergence action against PHBPU in %: 80%
PHBPU [17]; dosage 80 g/ha
  Pre-emergence action against PHBPU in %: 90%

## CCn1nnnc1NC(=O)c1ccc(Br)c(C(=O)NC)c1Cl [Example 2-177]
ABUTH [18]
  pest or weed control at 5 g/ha: 80%
  pest or weed control at 20 g/ha: 90%
ALOMY [1]; [21]
  pest or weed control at 80 g/ha: 100%
ALOMY [1]
  pest or weed control at 20 g/ha: 90%
VERPE [19]
  pest or weed control at 80 g/ha: 80%
AMARE [2]; [22]
  pest or weed control at 20 g/ha: 100%
AMARE [2]; [24]
  pest or weed control at 80 g/ha: 100%
LOLRI
  pest or weed control at 80 g/ha: 90%
VERPE [4]
  pest or weed control at 20 g/ha: 80%
ABUTH [5]; [21]
  pest or weed control at 80 g/ha: 100%
ABUTH [5]; [23]
  pest or weed control at 20 g/ha: 90%
AMARE [6]
  pest or weed control at 20 g/ha: 100%
DIGSA [7]; dosage 20 g/ha
  pest or weed control at 20 g/ha: 100%
DIGSA [7]; dosage 80 g/ha
  pest or weed control at 80 g/ha: 100%
AVEFA; 80 g/ha, pre-emergence
  pest or weed control at 80 g/ha: 90%
SETVI [8]; dosage 20 g/ha
  pest or weed control at 20 g/ha: 100%
SETVI [8]; dosage 80 g/ha
  pest or weed control at 80 g/ha: 100%
VIOTR [9]; Viola tricolor, 504 h, 5 g/ha
  pest or weed control at 5 g/ha: 80%
VIOTR [9]; Viola tricolor, 504 h, 20 g/ha
  pest or weed control at 20 g/ha: 100%
MATIN [11]; Tripleurospermum inodorum, 504 h, dosage 5 g/ha
  pest or weed control at 5 g/ha: 90%
MATIN [11]; [25]
  pest or weed control at 20 g/ha: 90%
ECHCG [12]; 80 g/ha
  pest or weed control at 80 g/ha: 90%
MATIN [13]; [25]
  pest or weed control at 20 g/ha: 90%
MATIN [13]; [26]
  pest or weed control at 80 g/ha: 100%
ALOMY [14]; Alopecurus myosuroides, 504 h, dosage 5 g/ha
  pest or weed control at 5 g/ha: 80%
ALOMY [14]; [27]
  pest or weed control at 20 g/ha: 100%
VIOTR [15]; dosage 20 g/ha
  pest or weed control at 20 g/ha: 100%
VIOTR [15]; dosage 80 g/ha
  pest or weed control at 80 g/ha: 100%
PHBPU [17]; dosage 80 g/ha
  pest or weed control at 80 g/ha: 80%
SETVI [20]
  pest or weed control at 5 g/ha: 90%
  pest or weed control at 20 g/ha: 90%

## Cc1nnc(NC(=O)c2ccc(C(F)(F)F)c(C(=O)NC(C)C)c2C)o1 [Example 6-255]
ABUTH [18]
  pest or weed control at 5 g/ha: 90%
  pest or weed control at 20 g/ha: 90%
ALOMY [1]; [21]
  pest or weed control at 80 g/ha: 100%
ALOMY [1]
  pest or weed control at 20 g/ha: 90%
VERPE [19]
  pest or weed control at 80 g/ha: 90%
AMARE [2]; [22]
  pest or weed control at 20 g/ha: 100%
AMARE [2]; [24]
  pest or weed control at 80 g/ha: 100%
LOLRI
  pest or weed control at 80 g/ha: 80%
DIGSA [3]; Digitaria sanguinalis, 504 h, 5 g/ha
  pest or weed control at 5 g/ha: 90%
DIGSA [3]; Digitaria sanguinalis, 504 h, 20 g/ha
  pest or weed control at 20 g/ha: 100%
VERPE [4]
  pest or weed control at 20 g/ha: 80%
ABUTH [5]; [21]
  pest or weed control at 80 g/ha: 100%
ABUTH [5]; [23]
  pest or weed control at 20 g/ha: 100%
AMARE [6]
  pest or weed control at 20 g/ha: 100%
DIGSA [7]; dosage 20 g/ha
  pest or weed control at 20 g/ha: 100%
DIGSA [7]; dosage 80 g/ha
  pest or weed control at 80 g/ha: 100%
AVEFA; 80 g/ha, pre-emergence
  pest or weed control at 80 g/ha: 80%
SETVI [8]; dosage 20 g/ha
  pest or weed control at 20 g/ha: 100%
SETVI [8]; dosage 80 g/ha
  pest or weed control at 80 g/ha: 100%
ECHCG [10]; Echinochloa crus-galli, 504 h, dosage 5 g/ha
  pest or weed control at 5 g/ha: 90%
ECHCG [10]; Echinochloa crus-galli, 504 h, dosage 20 g/ha
  pest or weed control at 20 g/ha: 100%
ECHCG [12]; 80 g/ha
  pest or weed control at 80 g/ha: 100%
MATIN [13]; [26]
  pest or weed control at 80 g/ha: 100%
ALOMY [14]; [27]
  pest or weed control at 20 g/ha: 90%
VIOTR [15]; dosage 20 g/ha
  pest or weed control at 20 g/ha: 80%
VIOTR [15]; dosage 80 g/ha
  pest or weed control at 80 g/ha: 90%
PHBPU [16]; Ipomoea purpurea, 504 h, dosage 5 g/ha
  pest or weed control at 5 g/ha: 90%
PHBPU [16]; Ipomoea purpurea, 504 h, dosage 20 g/ha
  pest or weed control at 20 g/ha: 90%
PHBPU [17]; dosage 80 g/ha
  pest or weed control at 80 g/ha: 90%
SETVI [20]
  pest or weed control at 5 g/ha: 80%
  pest or weed control at 20 g/ha: 90%
